Assay results published in ChEMBL document CHEMBL5113368, “Meroterpenoids produced by fungi: Occurrence, structural diversity, biological activities, and their molecular targets” (Eur J Med Chem, 2021).
Values after ≈ are worked out from the molar mass of the structure shown.

Legend:
THP-1 = test: Cytotoxicity against human THP-1 cells assessed as cell growth inhibition measured after 24 hrs by MTT assay; assay type: functional, cell-based; conditions: THP-1, 24 h
[1] = Cytotoxicity against human Caco-2 cells assessed as cell growth inhibition measured after 24 hrs by MTT assay; assay type: toxicity, cell-based
HL-60 = test: Cytotoxicity against human HL-60 cells assessed as cell growth inhibition measured after 24 hrs by MTT assay; assay type: functional, cell-based; conditions: HL-60, 24 h
Beta-secretase 1 = Beta-secretase 1 (Homo sapiens, UniProt P56817); test: Inhibition of BACE1 (unknown origin) using […] incubated in dark for 1 hr by fluorescence based analysis
Chain of Beta-secretase 1 (P56817 whole entry): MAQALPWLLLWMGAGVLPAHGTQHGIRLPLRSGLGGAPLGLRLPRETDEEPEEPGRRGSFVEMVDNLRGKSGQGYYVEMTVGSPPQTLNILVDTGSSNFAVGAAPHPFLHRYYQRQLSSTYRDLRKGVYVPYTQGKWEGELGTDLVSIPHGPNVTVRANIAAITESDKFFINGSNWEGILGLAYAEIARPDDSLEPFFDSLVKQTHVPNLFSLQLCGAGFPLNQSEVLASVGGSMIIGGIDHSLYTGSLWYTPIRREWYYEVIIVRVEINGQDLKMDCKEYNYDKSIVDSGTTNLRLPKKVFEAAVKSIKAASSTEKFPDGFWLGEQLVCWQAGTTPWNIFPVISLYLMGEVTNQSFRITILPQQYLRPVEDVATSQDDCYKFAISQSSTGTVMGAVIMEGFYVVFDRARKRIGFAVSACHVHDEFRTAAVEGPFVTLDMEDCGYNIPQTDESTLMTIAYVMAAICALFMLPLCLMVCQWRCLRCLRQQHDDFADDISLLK

MCF7 = test: Cytotoxicity against human MCF7 cells assessed as cell growth inhibition measured after 96 hrs by MTT assay; assay type: functional, cell-based; conditions: MCF7, 96 h
[2] = test system: Clavibacter michiganensis subsp. sepedonicus; test: Antibacterial activity against Clavibacter michiganensis subsp. sepedonicus assessed as inhibition of bacterial growth measured after 18 to 48 hrs; assay type: functional; conditions: time 18-48 hrs
Bacillus subtilis = test: Antibacterial activity against Bacillus subtilis assessed as reduction in microbial growth by modified broth dilution test; assay type: functional
Verticillium dahliae = test: Antifungal activity Verticillium dahliae assessed as inhibition of fungal growth by microbroth dilution method; assay type: functional
Phytophthora nicotianae = test: Antifungal activity Phytophthora parasitica assessed as inhibition of fungal growth by microbroth dilution method; assay type: functional
RAW264.7 = test: Antiinflammatory activity in mouse RAW264.7 cells assessed as decrease in LPS-induced IL-6 expression at 40 uM preincubated for 2 hrs followed by LPS-stimulation for 22 hrs by ELISA analysis relative to control; assay type: functional; conditions: time 24 hrs
[3] = molecular target: T1, Prostaglandin G/H synthase 2 (Homo sapiens, UniProt P35354); test: Inhibition of human recombinant COX-2 pretreated with compound for 10 mins followed by substrate addition for 10 mins by fluorescent inhibitor screening assay
T1 sequence (P35354 whole entry): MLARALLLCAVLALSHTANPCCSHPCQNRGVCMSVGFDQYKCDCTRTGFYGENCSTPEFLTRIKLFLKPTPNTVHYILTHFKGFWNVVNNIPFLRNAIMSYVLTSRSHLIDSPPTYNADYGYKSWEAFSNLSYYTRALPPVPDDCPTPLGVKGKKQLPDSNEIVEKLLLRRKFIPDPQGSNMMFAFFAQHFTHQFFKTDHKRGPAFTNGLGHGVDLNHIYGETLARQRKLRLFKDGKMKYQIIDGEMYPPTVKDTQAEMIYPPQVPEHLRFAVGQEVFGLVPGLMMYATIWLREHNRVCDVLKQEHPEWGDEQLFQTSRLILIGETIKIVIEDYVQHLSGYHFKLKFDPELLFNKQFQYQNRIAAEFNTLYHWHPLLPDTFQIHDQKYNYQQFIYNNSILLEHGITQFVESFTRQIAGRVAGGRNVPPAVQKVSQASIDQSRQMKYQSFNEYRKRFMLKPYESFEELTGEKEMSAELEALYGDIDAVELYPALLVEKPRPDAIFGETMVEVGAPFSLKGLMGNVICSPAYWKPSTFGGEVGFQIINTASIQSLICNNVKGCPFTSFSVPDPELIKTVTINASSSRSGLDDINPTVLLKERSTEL

A549 = test: Cytotoxicity against human A549 cells assessed as cell growth inhibition by CCK-8 method; assay type: functional, cell-based
[4] = Cytotoxicity against rat IEC-6 cells assessed as cell growth inhibition by WST-1 assay; assay type: toxicity, cell-based
Salmonella typhi = test: Antibacterial activity against Salmonella typhi assessed as reduction in microbial growth by modified broth dilution test; assay type: functional, Salmonella enterica subsp. enterica serovar Typhi; conditions: Salmonella enterica
Fusarium graminearum = test: Antifungal activity Fusarium graminearum assessed as inhibition of fungal growth by microbroth dilution method; assay type: functional
KB [5] = test: Cytotoxicity against human KB cells assessed as cell growth inhibition by colorimetric method; assay type: functional, cell-based
BC1 cell line = test: Cytotoxicity against human BC1 cells assessed as cell growth inhibition by colorimetric method; assay type: functional, cell-based
NCI-H187 [6] = test: Cytotoxicity against human NCI-H187 cells assessed as cell growth inhibition by colorimetric method; assay type: functional, cell-based
Vibrio anguillarum = test: Antibacterial activity against Vibrio anguillarum assessed as bacterial growth inhibition incubated for 24 hrs by absorbance based analysis; assay type: functional
Vibrio alginolyticus = test: Antibacterial activity against Vibrio alginolyticus assessed as bacterial growth inhibition incubated for 24 hrs by absorbance based analysis; assay type: functional
Vibrio parahaemolyticus = test: Antibacterial activity against Vibrio parahaemolyticus assessed as bacterial growth inhibition incubated for 24 hrs by absorbance based analysis; assay type: functional
SGC-7901 = test: Cytotoxicity against human SGC-7901 cells assessed as cell growth inhibition measured after 48 hrs by MTT assay; assay type: functional, cell-based; conditions: SGC-7901, 48 h
HeLa = test: Cytotoxicity against human HeLa cells assessed as cell growth inhibition measured after 48 hrs by MTT assay; assay type: functional, cell-based
[7] = Toxicity in brine shrimp assessed as induction of lethality; conditions: artemia salina; read-out: LD50 (the source's name)
[8] = test system: Mycobacterium tuberculosis; test: Antimycobacterial activity against Mycobacterium tuberculosis H37Ra assessed as inhibition of bacterial growth by microplate alamar blue assay; assay type: functional
KB [9] = test: Cytotoxicity against human KB cells assessed as cell growth inhibition; assay type: functional, cell-based
NCI-H187 [10] = test: Cytotoxicity against human NCI-H187 cells assessed as cell growth inhibition; assay type: functional, cell-based

C=C1[C@@]2(C)C[C@H]3[C@@]4(C)C(=CC[C@]3(C)[C@]1(C(=O)OC)C(=O)[C@@](C)(O)C2=O)C(C)(C)C(=O)C[C@H]4O [BERKELEYTRIONE]
IC50 (THP-1): 4.3 µM
IC50 at 24 h [1]: 10.5 µM
IC50 (HL-60): 3.4 µM

C=C1[C@@]23C(=O)O[C@H](C)[C@@]2(O)C(=O)O[C@]1(C)[C@@H](O)C1=C2CO[C@H]4CC(=O)OC(C)(C)[C@@]24CC[C@@]13C
IC50 (Beta-secretase 1): 0.078 µM

CC(C)=CC[C@H]1C(=O)C2=C(CO[C@@H]2CCO)[C@@H](O)[C@H]1O
IC50 (MCF7): 4.2 µM

CC1=CC[C@H]2C(C)(C)C(=O)CC[C@]2(C)[C@H]1C[C@@]12O[C@@H]1[C@H](O)C(CO)=C[C@H]2O
MIC [2]: 9.48 mg/L (≈ 25.2 µM)

Cc1oc(=O)c2c(c1C)O[C@]1(C)[C@H](O)C(=O)[C@]3(O)C(C)(C)C(=O)C[C@@]3(O)[C@H](C)[C@H]1C2
MIC (Bacillus subtilis): 12.5 mg/L
MIC (Verticillium dahliae): 12.5 mg/L
MIC (Phytophthora nicotianae): 12.5 mg/L

Cc1oc(=O)c2c(c1C)O[C@@]1(C)[C@@H]([C@@H](C)[C@]3(O)CC(=O)C(C)(C)C(=O)[C@@]3(O)[C@H]1O)[C@H]2O
inhibition at 40 µM (RAW264.7): 69%

CC(C)=CCC/C(C)=C/CCC1=C[C@]2(OC1=O)c1cc(O)ccc1OC(=O)[C@]2(CC/C=C(\C)CCC=C(C)C)CC(=O)c1cc(O)ccc1O (racemic)
IC50 [3]: 1.29 µM
IC50 (A549): 7.14 µM

C=C1[C@@]2(C)C[C@H]3C(=C)[C@]4(C=CC(=O)OC4(C)C)CC[C@]3(C)[C@@]13C(=O)O[C@@H](C)[C@@]3(O)C2=O
IC50 [4]: 2.52 mg/L (≈ 5.91 µM)

Cc1oc(=O)c2c(c1C)O[C@]1(C)[C@H](O)[C@@H]3O[C@](O)(CC[C@H](C)[C@H]1C2)C(C)(C)C3=O
MIC (Salmonella typhi): 12.5 mg/L
MIC (Fusarium graminearum): 12.5 mg/L

Cc1cc2c(c(=O)o1)C[C@H]1[C@]3(C)CC[C@H]4C(C)(C)[C@@H](O)CC[C@]4(C)[C@H]3CC[C@]1(C)O2
IC50 (KB [5]): 2.9 mg/L (≈ 6.99 µM)
IC50 (BC1 cell line): 8.7 mg/L (≈ 21 µM)
IC50 (NCI-H187 [6]): 9.8 mg/L (≈ 23.6 µM)

CC(C)(O)[C@H](O)CC[C@]1(C)[C@@H](O)CC[C@@]2(C)[C@H]1CC[C@H]1Cc3c([nH]c4ccccc34)[C@@]12C
MIC (Vibrio anguillarum): 3.1 µM (≈ 1.36 µg/mL)
MIC (Vibrio alginolyticus): 3.1 µM (≈ 1.36 µg/mL)
MIC (Vibrio parahaemolyticus): 6.3 µM (≈ 2.77 µg/mL)

COc1ccc(O)c2c1[C@@H]1C=C(CC/C=C(/C)C2)C(=O)O1
IC50 (SGC-7901): 14.5 µM
IC50 (HeLa): 23.5 µM

C=C(C)[C@H]1O[C@H]2CC[C@@]3(C)[C@@](O)(CC[C@@]4(O)[C@@H]5OC(C)(C)[C@H]6C[C@@H]7C(=C)Cc8ccc9[nH]c(c5c9c8[C@@]76O)[C@]34C)[C@]23O[C@@H]3[C@H]1O
LC50 [7]: 4.6 µM

CC(=O)O[C@H]1C[C@@H](O)[C@@]2(C)[C@@H](CC[C@]3(C)[C@@H]2CC[C@]2(C)Oc4oc(C)cc(=O)c4C[C@@H]32)C1(C)C
MIC [8]: 26.4 µM (≈ 12.5 µg/mL)
IC50 (KB [9]): 32.7 µM
IC50 (NCI-H187 [10]): 32.7 µM
